“And” between values parts separate entries of the source, which are not always exact repeats. Equal values may be shown once. Read-outs that look alike come from different tables or passages of the source. *1 amine or outer side, *2 acyl side, *3 side chain or, on linkers, in order; H or OH if unused. Where a SMILES comes first, the peptide text is derived from it. Bridges are numbered along the chain shown (N, C = ends). [ ]: non-standard residue; d: D form. The star is where a group is joined. hTyr(3S-OH,4S-OH,3'-OSO3H) = N[C@H](C(=O)O)[C@H](O)[C@@H](O)c1ccc(O)c(OS(=O)(=O)O)c1; Orn(4R-OH,5R-OH) = O=C([C@H](C[C@@H](O)[C@@H](O)N[*:3])N[*:1])[*:2]; Pro(3S-OH,4S-Me) = C[C@H]1CN[C@H](C(=O)O)[C@H]1O; X1 = CCCCCOc1ccc(-c2cc(-c3ccc(C(=O)*)cc3)no2)cc1; Gln(3R-OH) = NC(=O)C[C@@H](O)[C@H](N)C(=O)O; Hyp = O=C(O)[C@@H]1C[C@@H](O)CN1
Target: SARS-CoV-2 M^pro (Severe acute respiratory syndrome coronavirus 2, UniProt P0DTD1)
Assay: biochemical
[1] = ReFRAME hits, >5e-6 = not potent enough to determine an IC50, read-out: M^pro IC50

| Compound | IC50 (read-out: M^pro IC50) | M^pro % inhibition at 10 µM (ReFRAME hits, 10 µM) | IC50 [1] | further results |
| --- | --- | --- | --- | --- |
| CC(C)[C@H](NC(=O)OCc1ccccc1)C(=O)N[C@@H](C)C(=O)N[C@@H](CC(=O)O)C(=O)COC(=O)c1c(Cl)cccc1Cl [Compound 5] | – | – | – | inhibition at 100 µM (at 100 µM): 50% |
| CC(=O)N[C@@H](Cc1ccc(O)cc1)C(=O)N[C@H](C(=O)N[C@@H](C)C(=O)N[C@@H](CC(=O)O)C(=O)COC(=O)c1c(C)cccc1C)C(C)C [Compound 6, Ac-YVAD-AOM, reference compound] | – | – | – | Inhibition of M^pro (in words): did not substantially inhibit |
| Nc1nc(N)nc(Nc2ccc([As]3SC(C(=O)O)C(C(=O)O)S3)cc2)n1 (stereo not drawn) [MELARSONYL] | 1 µM | – | – | M^pro % inhibition at 10 µM: 99% |
| CN1CCCN=C1/C=C/c1cccs1 [Pyrantel pamoate, reference compound] | – | – | – | IC50: 4 µM |
| CC(=O)[O][Hg][c]1cc(C(C)(C)CC(C)(C)C)ccc1O [acetomeroctol] | > 5 µM | – | – | M^pro % inhibition at 10 µM: 79% |
| O=c1cc(-c2ccc(O)c(-c3c(O)cc(O)c4c(=O)cc(-c5ccc(O)cc5)oc34)c2)oc2cc(O)cc(O)c12 [amentoflavone] | > 5 µM | – | – | – |
| O=C1OC2(c3ccccc31)c1cc(I)c(O)c(I)c1Oc1c2cc(I)c(O)c1I [erythrosine] | – | – | – | IC50: 4 µM |
| Cc1cc(O)c2c(=O)c3c(O)cc(O)c4c5c(O)cc(O)c6c(=O)c7c(O)cc(C)c8c1c2c(c34)c(c78)c65 [hypericin] | 4 µM | – | – | inhibition at 10 µM (read-out: M^pro % inhibition at 10 µM, ReFRAME hits, 10 µM): 71% |
| [Cl][Hg][Cl] [mercuric chloride] | – | 89% | > 5 µM | – |
| CCCCCOc1ccc(-c2cc(-c3ccc(C(=O)N[C@H]4C[C@@H](O)[C@@H](O)NC(=O)[C@@H]5[C@@H](O)[C@@H](C)CN5C(=O)[C@H]([C@H](O)CC(N)=O)NC(=O)[C@H]([C@H](O)[C@@H](O)c5ccc(O)c(OS(=O)(=O)[O-])c5)NC(=O)[C@@H]5C[C@@H](O)CN5C(=O)[C@H]([C@@H](C)O)NC4=O)cc3)no2)cc1.[Na+] [micafungin Sodium, reference compound] (X1-[Orn(4R-OH,5R-OH)]T[Hyp][hTyr(3S-OH,4S-OH,3'-OSO3H)][Gln(3R-OH)][Pro(3S-OH,4S-Me)]; lactam 1-C) | – | 50% | > 5 µM | – |
| O=C(N/N=C/c1ccc([N+](=O)[O-])o1)c1cc([N+](=O)[O-])cc([N+](=O)[O-])c1O [nifursol] | > 5 µM | – | – | – |
| CN1CCCN=C1/C=C/c1cccc(O)c1 [oxantel (pamoate), reference compound] | – | – | 4 µM | – |
| CN1CCCN=C1/C=C/c1cccc(O)c1.O=C(O)c1cc2ccccc2c(Cc2c(O)c(C(=O)O)cc3ccccc23)c1O [oxantel (pamoate), reference compound] | – | 77% | – | – |
| (-)-epicatechin gallate | – | 46% | > 5 µM | – |
| [(-)-epicatechin] | – | 48% | > 5 µM | – |
| teicoplanin [reference compound] | – | 73% and 40% | > 5 µM | – |

Reference: PMC8225628, “Bispecific repurposed medicines targeting the viral and immunological arms of COVID-19” (Scientific Reports, 2021)
